Reference: ChEMBL document CHEMBL1629482, “Synthesis and antitubercular activity of new mefloquine-oxazolidine derivatives” (Eur J Med Chem, 2010)
Converted amounts (≈) assume the structure as drawn.

Key:
[1] = system: Mycobacterium tuberculosis; test: Antitubercular activity against Mycobacterium tuberculosis ATCC 27294 by Alamar blue assay; assay type: functional
[2] = Cytotoxicity against mouse macrophage assessed as cell viability at 50 uM after 18 hrs by MTT assay; assay type: cell-based; settings: mouse macrophages, read-out: Activity
[3] = Cytotoxicity against mouse macrophage assessed as cell viability at 25 uM after 18 hrs by MTT assay; assay type: cell-based; settings: mouse macrophages, read-out: Activity
[4] = Cytotoxicity against mouse macrophage assessed as cell viability at 12.5 uM after 18 hrs by MTT assay; assay type: cell-based; settings: mouse macrophages, read-out: Activity
[5] = system: Mycobacterium tuberculosis; test: Antitubercular activity against Mycobacterium tuberculosis; assay type: functional
Mycobacterium avium = test: Antitubercular activity against Mycobacterium avium by Broth micro dilution method; assay type: functional

| SMILES | MIC [1] | viability at 18 h, 50 µM [2] | viability at 18 h, 25 µM [3] | viability at 18 h, 12.5 µM [4] | MIC [5] | MIC (Mycobacterium avium) |
| --- | --- | --- | --- | --- | --- | --- |
| O=[N+]([O-])c1ccccc1C1O[C@@H](c2cc(C(F)(F)F)nc3c(C(F)(F)F)cccc23)[C@H]2CCCCN12 (mixture of isomers) | > 250 µM | 100% | 100% | 100% |  |  |
| O=[N+]([O-])c1ccc(C2O[C@@H](c3cc(C(F)(F)F)nc4c(C(F)(F)F)cccc34)[C@H]3CCCCN23)cc1 (mixture of isomers) | > 250 µM | 100% | 100% | 100% |  |  |
| Oc1ccc(C2O[C@@H](c3cc(C(F)(F)F)nc4c(C(F)(F)F)cccc34)[C@H]3CCCCN23)cc1 (mixture of isomers) | 25.9 µM | 80% | 80% | 100% |  |  |
| FC(F)(F)c1cc([C@@H]2OC(c3cccc(Br)c3)N3CCCC[C@H]23)c2cccc(C(F)(F)F)c2n1 (mixture of isomers) | > 250 µM | 85% | 85% | 100% |  |  |
| Oc1ccccc1C1O[C@@H](c2cc(C(F)(F)F)nc3c(C(F)(F)F)cccc23)[C@H]2CCCCN12 (mixture of isomers) | 25.9 µM | 85% | 85% | 100% |  |  |
| FC(F)(F)c1cc([C@@H]2OC(c3ccc(Br)cc3)N3CCCC[C@H]23)c2cccc(C(F)(F)F)c2n1 (mixture of isomers) | > 250 µM | 100% | 100% | 100% |  |  |
| OC(c1cc(C(F)(F)F)nc2c(C(F)(F)F)cccc12)C1CCCCN1 (stereo unspecified) [MEFLOQUINE] | 33 µM (≈ 12.5 µg/mL) | 76% | 77% | 81% | 21.1 µM (≈ 7.98 µg/mL) | 21.1 µM (≈ 7.98 µg/mL) |
| FC(F)(F)c1cc([C@@H]2OC(c3ccccc3Cl)N3CCCC[C@H]23)c2cccc(C(F)(F)F)c2n1 (mixture of isomers) | > 250 µM | 100% | 100% | 100% |  |  |
| CC[C@@H](CO)NCCN[C@@H](CC)CO [ETHAMBUTOL] | 15.9 µM (≈ 3.25 µg/mL) |  |  |  |  |  |
| O=[N+]([O-])c1cccc(C2O[C@@H](c3cc(C(F)(F)F)nc4c(C(F)(F)F)cccc34)[C@H]3CCCCN23)c1 (stereo partly specified) | > 250 µM | 100% | 100% | 100% |  |  |
| Fc1ccc(C2O[C@@H](c3cc(C(F)(F)F)nc4c(C(F)(F)F)cccc34)[C@H]3CCCCN23)cc1 (mixture of isomers) | 25.8 µM | 82% | 84% | 93% |  |  |
| COc1cccc(C2O[C@@H](c3cc(C(F)(F)F)nc4c(C(F)(F)F)cccc34)[C@H]3CCCCN23)c1 (mixture of isomers) | 25.2 µM | 80% | 80% | 100% |  |  |
| Fc1ccccc1C1O[C@@H](c2cc(C(F)(F)F)nc3c(C(F)(F)F)cccc23)[C@H]2CCCCN12 (mixture of isomers) | > 250 µM | 100% | 100% | 100% |  |  |
| COc1ccccc1C1O[C@@H](c2cc(C(F)(F)F)nc3c(C(F)(F)F)cccc23)[C@H]2CCCCN12 (mixture of isomers) | 12.6 µM | 100% | 100% | 100% |  |  |
| FC(F)(F)c1cc([C@H]2O[C@@H](c3ccccc3)N3CCCC[C@@H]23)c2cccc(C(F)(F)F)c2n1 | 26.8 µM (≈ 12.5 µg/mL) | 95% | 96% | 100% |  |  |
| FC(F)(F)c1cc([C@@H]2OC(c3cccc(Cl)c3)N3CCCC[C@H]23)c2cccc(C(F)(F)F)c2n1 (mixture of isomers) | > 250 µM | 90% | 100% | 100% |  |  |
| FC(F)(F)c1cc([C@@H]2OC(c3ccc(Cl)cc3)N3CCCC[C@H]23)c2cccc(C(F)(F)F)c2n1 (mixture of isomers) | > 250 µM | 100% | 100% | 100% |  |  |
| COc1ccc(C2O[C@@H](c3cc(C(F)(F)F)nc4c(C(F)(F)F)cccc34)[C@H]3CCCCN23)cc1 (mixture of isomers) | 25.2 µM | 100% | 100% | 100% |  |  |
